Assay [1] addresses T1, ligand-binding domain of RORγ (RORγ-LBD) (Homo sapiens, UniProt P51449).
T1 construct: purchased Invitrogen
T1 sequence (P51449 269-508 limits assumed): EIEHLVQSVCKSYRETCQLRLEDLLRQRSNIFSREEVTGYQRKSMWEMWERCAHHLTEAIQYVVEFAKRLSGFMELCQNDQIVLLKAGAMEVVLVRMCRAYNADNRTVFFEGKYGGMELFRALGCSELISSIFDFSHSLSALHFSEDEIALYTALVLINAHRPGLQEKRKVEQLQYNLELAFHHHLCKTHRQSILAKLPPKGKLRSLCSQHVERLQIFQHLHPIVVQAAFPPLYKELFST
The experiment in a line: Inhibitory effect on RORγ-coactivator binding (LanthaScreen TR-FRET RORγ Coactivator Assay). To be noted: at 33 μmol/L of the test compound; read-out: RORγ-coactivator binding inhibition rate (%). In short, it runs like this:
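TR-FRET: 4 nmol/L GST-RORγ-LBD with compound (1% DMSO) in Coregulator Buffer D plus 5 mmol/L DTT, then 150 nmol/L fluorescein-TRAP220/DRIP-2 and 32 nmol/L Tb-anti-GST antibody; 16–24 hours at room temperature. 520/495 nm ratio (320 nm excitation), background-corrected against control, gives % inhibition of coactivator binding.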
On the technique in general: TR-FRET usually uses a lanthanide donor and a delayed reading to cut background.

Assay [2] deals with IL-17 production in mouse splenocytes. The experiment in a line: Suppressive effect on IL-17 production by IL-23 stimulation in mouse splenocytes. To be noted: Splenocyte, 72 h, at 5 μmol/L of the test compound, 10 ng/mL human IL-23, 3 days, read-out: IL-17 production inhibition rate (%). Type of assay: cell-based. An outline of the steps:
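Splenocytes from male C57BL/6J mice (3×10^5/well, with 100 U/mL human IL-2) stimulated with 10 ng/mL human IL-23 plus compound (0.1% DMSO) for 3 days at 37 °C. Supernatant IL-17 measured by ELISA; inhibition calculated against unstimulated and IL-23-only wells.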

This note sets out measurements from patent publication US10364222B2, “Cyclic amine derivative and medical use thereof” (Toray Industries, Inc., priority 2016, dated 2019).

What is called inhibition is the relative decrease from the control value, in per cent.

Regarding `O=C(Nc1ccc(-c2ccccc2OC(F)(F)F)c(Cl)c1)[C@H]1CCCCN1C(=O)Cn1nccn1` [Example 66, (R)-1-(2-(2H-1,2,3-triazol-2-yl)acetyl)-N-(2-chloro-2′-(trifluoromethoxy)-[1,1′-biphenyl]-4-yl)piperidine-2-carboxamide], in assay [1], the inhibition at 33 µM turned out to be 103%. The inhibition at 5 µM in assay [2] came out at 99.5%.

Regarding `Cc1nnc(CC(=O)N2CCCC[C@@H]2C(=O)Nc2ccc(-c3ccccc3OC(F)(F)F)c(Cl)c2)o1` [Example 67, (R)-N-(2-chloro-2′-(trifluoromethoxy)-[1,1′-biphenyl]-4-yl)-1-(2-(5-methyl-1,3,4-oxadiazol-2-yl)acetyl)piperidine-2-carboxamide], the inhibition at 33 µM in assay [1] came out at 99.1%. Also, the inhibition at 5 µM in assay [2] was 98.7%.

On to `COC(=O)CCCC(=O)N1CCCC[C@@H]1C(=O)Nc1ccc(-c2ccccc2OC(F)(F)F)c(Cl)c1` [Example 69, methyl (R)-5-(2-((2-chloro-2′-(trifluoromethoxy)-[1,1′-biphenyl]-4-yl)carbamoyl)piperidin-1-yl)-5-oxopentanoate], for which the inhibition at 33 µM in assay [1] amounted to 95.9%. The inhibition at 5 µM in assay [2] was 99.5%.
